The record followed here is ChEMBL document CHEMBL3994622, “Design and synthesis of new RAF kinase-inhibiting antiproliferative quinoline derivatives. Part 2: Diarylurea derivatives” (Eur J Med Chem, 2017).

For orientation: inhibition means the change of the read-out against control, counted positive when it falls.

Test [1] concerns MDA-MB-468. As to the kind of experiment: Growth inhibition of human MDA-MB-468 cells assessed as cell growth at 100 uM incubated for 48 hrs by sulforhodamine B assay relative to control. It counts as functional. The note with it: MDA-MB-468, 48 h, read-out: Activity. (In SRB staining, fixed cells bind dye roughly in proportion to their protein.)
Test [2] concerns HT-29. As to the kind of experiment: Growth inhibition of human HT-29 cells assessed as cell growth at 0.005 uM incubated for 48 hrs by sulforhodamine B assay relative to control. It counts as functional. Particulars: HT-29, 48 h, read-out: Activity.
Test [3] deals with SF-268. In words: Growth inhibition of human SF268 cells assessed as cell growth at 0.005 uM incubated for 48 hrs by sulforhodamine B assay relative to control. It counts as functional. The note with it: SF-268, 48 h, read-out: Activity.
For test [4], the system named is SK-MEL-28. In words: Growth inhibition of human SK-MEL-28 cells assessed as cell growth at 0.005 uM incubated for 48 hrs by sulforhodamine B assay relative to control. Particulars: SK-MEL-28, 48 h, read-out: Activity. It counts as functional.
The subject of test [5] is UACC-62. As to the kind of experiment: Growth inhibition of human UACC62 cells assessed as cell growth at 0.005 uM incubated for 48 hrs by sulforhodamine B assay relative to control. In kind it is functional. Particulars: UACC-62, 48 h, read-out: Activity.
The test system of test [6] is TK-10. In words: Growth inhibition of human TK10 cells assessed as cell growth at 0.005 uM incubated for 48 hrs by sulforhodamine B assay relative to control. It counts as functional. Particulars: TK-10, 48 h, read-out: Activity.
The test system of test [7] is MDA-MB-231. As to the kind of experiment: Growth inhibition of human MDA-MB-231 cells assessed as cell growth at 0.005 uM incubated for 48 hrs by sulforhodamine B assay relative to control. Particulars: MDA-MB-231, 48 h, read-out: Activity. It counts as functional.
The test system of test [8] is RPMI-8226. As to the kind of experiment: Growth inhibition of human RPMI8226 cells assessed as cell growth at 0.05 uM incubated for 48 hrs by sulforhodamine B assay relative to control. In kind it is functional. Particulars: RPMI-8226, 48 h, read-out: Activity.
For test [9], the system named is SF-539. As to the kind of experiment: Growth inhibition of human SF539 cells assessed as cell growth at 0.05 uM incubated for 48 hrs by sulforhodamine B assay relative to control. The note with it: SF-539, 48 h, read-out: Activity. It counts as functional.
Test [10] has as its system M14. As to the kind of experiment: Growth inhibition of human M14 cells assessed as cell growth at 0.05 uM incubated for 48 hrs by sulforhodamine B assay relative to control. In kind it is functional. Particulars: M14, 48 h, read-out: Activity.
Test [11] concerns A498. As to the kind of experiment: Growth inhibition of human A498 cells assessed as cell growth at 0.05 uM incubated for 48 hrs by sulforhodamine B assay relative to control. Particulars: A498, 48 h, read-out: Activity. In kind it is functional.
Test [12] deals with PC-3. In words: Growth inhibition of human PC3 cells assessed as cell growth at 0.05 uM incubated for 48 hrs by sulforhodamine B assay relative to control. In kind it is functional. The note with it: PC-3, 48 h, read-out: Activity.
The test system of test [13] is DU-145. In words: Growth inhibition of human DU145 cells assessed as cell growth at 0.05 uM incubated for 48 hrs by sulforhodamine B assay relative to control. The note with it: DU-145, 48 h, read-out: Activity. In kind it is functional.
Test [14] concerns HCT-116. As to the kind of experiment: Growth inhibition of human HCT116 cells assessed as cell growth at 0.5 uM incubated for 48 hrs by sulforhodamine B assay relative to control. In kind it is functional. The note with it: HCT-116, 48 h, read-out: Activity.
The subject of test [15] is NCI/ADR-RES. As to the kind of experiment: Growth inhibition of human NCI/ADR-RES cells assessed as cell growth at 0.5 uM incubated for 48 hrs by sulforhodamine B assay relative to control. In kind it is functional. The note with it: read-out: Activity.
In test [16] the test system is MCF7. In words: Growth inhibition of human MCF7 cells assessed as cell growth at 0.5 uM incubated for 48 hrs by sulforhodamine B assay relative to control. It counts as functional. Particulars: MCF7, 48 h, read-out: Activity.
For test [17], the system named is Hs-578T. In words: Growth inhibition of human Hs 578T cells assessed as cell growth at 0.5 uM incubated for 48 hrs by sulforhodamine B assay relative to control. In kind it is functional. Particulars: read-out: Activity.
Test [18] deals with NCI-H322M. As to the kind of experiment: Growth inhibition of human NCI-H322M cells assessed as cell growth at 5 uM incubated for 48 hrs by sulforhodamine B assay relative to control. In kind it is functional. The note with it: read-out: Activity.
For test [19], the system named is NCI-H522. As to the kind of experiment: Growth inhibition of human NCI-H522 cells assessed as cell growth at 5 uM incubated for 48 hrs by sulforhodamine B assay relative to control. In kind it is functional. Particulars: NCI-H522, 48 h, read-out: Activity.
Test [20] has as its system ACHN. In words: Growth inhibition of human ACHN cells assessed as cell growth at 5 uM incubated for 48 hrs by sulforhodamine B assay relative to control. The note with it: read-out: Activity. It counts as functional.
Test [21] deals with EKVX. As to the kind of experiment: Growth inhibition of human EKVX cells assessed as cell growth at 50 uM incubated for 48 hrs by sulforhodamine B assay relative to control. It counts as functional. The note with it: read-out: Activity.
The subject of test [22] is NCI-H23. As to the kind of experiment: Growth inhibition of human NCI-H23 cells assessed as cell growth at 50 uM incubated for 48 hrs by sulforhodamine B assay relative to control. It counts as functional. The note with it: NCI-H23, 48 h, read-out: Activity.
Test [23] deals with SNB-75. In words: Growth inhibition of human SNB75 cells assessed as cell growth at 50 uM incubated for 48 hrs by sulforhodamine B assay relative to control. It counts as functional. The note with it: SNB-75, 48 h, read-out: Activity.
Test [24] relates to MDA-MB-435. In words: Growth inhibition of human MDA-MB-435 cells assessed as cell growth at 50 uM incubated for 48 hrs by sulforhodamine B assay relative to control. It counts as functional. The note with it: MDA-MB-435, 48 h, read-out: Activity.
For test [25], the system named is UACC-257. As to the kind of experiment: Growth inhibition of human UACC257 cells assessed as cell growth at 50 uM incubated for 48 hrs by sulforhodamine B assay relative to control. It counts as functional. Particulars: UACC-257, 48 h, read-out: Activity.
The subject of test [26] is IGROV-1. As to the kind of experiment: Growth inhibition of human IGROV1 cells assessed as cell growth at 50 uM incubated for 48 hrs by sulforhodamine B assay relative to control. In kind it is functional. The note with it: IGROV-1, 48 h, read-out: Activity.
The subject of test [27] is OVCAR-3. As to the kind of experiment: Growth inhibition of human OVCAR3 cells assessed as cell growth at 50 uM incubated for 48 hrs by sulforhodamine B assay relative to control. In kind it is functional. The note with it: OVCAR-3, 48 h, read-out: Activity.
For test [28], the system named is 786-0. In words: Growth inhibition of human 786-0 cells assessed as cell growth at 50 uM incubated for 48 hrs by sulforhodamine B assay relative to control. In kind it is functional. The note with it: 786-0, 48 h, read-out: Activity.
In test [29] the test system is A498. As to the kind of experiment: Growth inhibition of human A498 cells assessed as cell growth at 50 uM incubated for 48 hrs by sulforhodamine B assay relative to control. It counts as functional. The note with it: A498, 48 h, read-out: Activity.
In test [30] the test system is SN12C. In words: Growth inhibition of human SN12C cells assessed as cell growth at 50 uM incubated for 48 hrs by sulforhodamine B assay relative to control. In kind it is functional. Particulars: read-out: Activity.
In test [31] the test system is BT-549. In words: Growth inhibition of human BT549 cells assessed as cell growth at 50 uM incubated for 48 hrs by sulforhodamine B assay relative to control. The note with it: BT-549, 48 h, read-out: Activity. It counts as functional.
Test [32] addresses Tyrosine-protein kinase ABL1 (Homo sapiens) (UniProt P00519). In words: Inhibition of human ABL1 at 10 uM using EAIYAAPFAKKK as substrate in presence of [33P]ATP by Hotspot assay relative to control.
Test [33] has as its system EKVX. As to the kind of experiment: Growth inhibition of human EKVX cells assessed as cell growth at 30 uM incubated for 48 hrs by sulforhodamine B assay relative to control. It counts as functional. Particulars: read-out: Activity.

SMILES strings stand for the structures.

Tyrosine-protein kinase ABL1 (Homo sapiens), sequence (P00519 whole entry): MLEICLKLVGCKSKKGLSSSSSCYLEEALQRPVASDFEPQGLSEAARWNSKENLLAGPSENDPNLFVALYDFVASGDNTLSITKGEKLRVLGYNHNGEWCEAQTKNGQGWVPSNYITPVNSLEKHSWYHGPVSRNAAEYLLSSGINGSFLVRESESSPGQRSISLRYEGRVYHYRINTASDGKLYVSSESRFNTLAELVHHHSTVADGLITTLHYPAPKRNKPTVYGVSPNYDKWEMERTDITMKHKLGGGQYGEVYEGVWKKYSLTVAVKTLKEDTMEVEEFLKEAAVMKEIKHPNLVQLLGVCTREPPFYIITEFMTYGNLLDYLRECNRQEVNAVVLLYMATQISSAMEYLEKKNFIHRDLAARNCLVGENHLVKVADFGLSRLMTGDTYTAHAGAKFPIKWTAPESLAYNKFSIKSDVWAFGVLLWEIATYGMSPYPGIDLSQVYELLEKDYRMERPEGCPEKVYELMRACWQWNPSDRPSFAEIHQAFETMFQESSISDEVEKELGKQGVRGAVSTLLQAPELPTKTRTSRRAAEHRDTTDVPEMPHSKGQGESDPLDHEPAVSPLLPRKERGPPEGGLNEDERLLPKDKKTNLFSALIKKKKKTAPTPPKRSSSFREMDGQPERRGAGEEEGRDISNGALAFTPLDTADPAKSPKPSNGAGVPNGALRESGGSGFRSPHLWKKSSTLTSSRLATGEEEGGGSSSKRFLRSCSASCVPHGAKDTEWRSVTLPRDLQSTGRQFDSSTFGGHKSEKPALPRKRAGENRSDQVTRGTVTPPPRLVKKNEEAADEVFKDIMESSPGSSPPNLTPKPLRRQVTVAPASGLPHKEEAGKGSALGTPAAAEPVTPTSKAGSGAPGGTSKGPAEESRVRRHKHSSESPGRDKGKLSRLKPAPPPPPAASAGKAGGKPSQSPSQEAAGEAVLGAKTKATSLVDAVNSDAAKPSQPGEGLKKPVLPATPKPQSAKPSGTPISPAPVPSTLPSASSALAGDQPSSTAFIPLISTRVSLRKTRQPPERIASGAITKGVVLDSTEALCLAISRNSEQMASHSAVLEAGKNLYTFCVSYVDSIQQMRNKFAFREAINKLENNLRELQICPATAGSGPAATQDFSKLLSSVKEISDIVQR

For `COc1cc2cc(Oc3ccc(NC(=O)Nc4cc(C(F)(F)F)cc(C(F)(F)F)c4)cc3)c(C)nc2cc1OC`, the growth at 100 µM in test [1] was -67%.
Consider `COc1cc2cc(Oc3ccc(NC(=O)Nc4cccc(C(F)(F)F)c4)cc3)c(C)nc2cc1OC`, for which the growth at 0.005 µM in test [2] was 100%; in test [3], 90%; in test [4] it was 101%; in [5], 93%; in [6], 92%; in [7] it was 93%. Moreover, the growth at 0.05 µM was 96% in [8]; 96% in [9]; 84% in test [10]; 106% in test [11]; 99% in test [12]; 94% in test [13]. The growth at 0.5 µM in test [14] stood at 88%; in test [15], 95%; in test [16] it was 85%; in test [17] it was 99%. The growth at 5 µM in test [18] is 31%; in test [19], -4%; in test [20], 8%. In addition, the growth at 50 µM in test [21] was -48%; in test [22], -42%; in test [23], -46%; in test [24], -29%; in test [25], -75%; in test [26], -14%. Moreover, the growth at 50 µM in test [27] is -57%; in [28], -33%; in test [29], -65%; in test [30], -21%; in [31], -69%.
In the case of `COc1cc2cc(Oc3ccc(NC(=O)Nc4ccc(Cl)c(C(F)(F)F)c4)cc3)c(C)nc2cc1OC`, the inhibition in [32] is -6.78%. Also, the growth at 30 µM in test [33] is -70%.
